Data on one compound can be found in patent publication US6673968B1, “Method of producing n-(4,5-bis-methanesulfonyl-2-methyl-benzoyl)-guanidine, the hydrochloride thereof” (Merck Patent Gesellschaft mit beschränkter Haftung, priority 1999, dated 2004).

Holding throughout (format): in vivo
Series [1] can be described thus: absorption from the digestive tract after oral administration (AUCpo/AUCiv), rat. Conditions: of the orally administered radioactively labelled substance. The text has this:
(§1) The absorption from the digestive tract after oral administration can be calculated by comparison of the concentrations of the administered active ingredient determined in the blood plasma after oral and intravenous administration (dose-standardised AUCpo/AUCiv) [AUC=area under the curve]. […] Bioavailabilities of the hydrochloride hydrate of from 88% to 99% were found in dogs, and 75% and 96% in 2 monkeys. Since the absorption rate is at least equal to or greater than the bioavailability determined, very good absorption has thus also been found in these animal species.

A short description of series [2]: bioavailability after oral administration (AUCpo/AUCiv), dogs. To be noted: dog, plasma, oral vs intravenous, dose-standardised AUCpo/AUCiv, read-out: Bioavailabilities.
From the text: as §1

The nature of series [3]: bioavailability after oral administration (AUCpo/AUCiv), monkeys. To be noted: 2 monkeys (individual values); oral vs intravenous, dose-standardised AUCpo/AUCiv; hydrochloride hydrate.
From the text: as §1

Several values for one entry are separate records, joined by “and”; a condition that tells them apart may be missing. Equal values may be shown once.

`Cc1cc(S(C)(=O)=O)c(S(C)(=O)=O)cc1C(=O)NC(=N)N.Cl.O` [hydrochloride hydrate, N-(4,5-bismethanesulfonyl-2-methylbenzoyl)guanidine, hydrochloride hydrate]: in series [1], the absorption rate stood at 98%. In addition, the bioavailability in series [2] is 88 to 99%. The Bioavailabilities in series [3] was 75% and 96%.
